Results: US20230382984A1, “TRABD PROTEIN, AND MONOCLONAL ANTIBODY THEREOF, AND ISOLATION, AMPLIFICATION AND USE THEREOF” (priority 2022, published 2023)

What was measured:
[1] = system: TRABD protease; conditions: cited from earlier work; for function of TRABD protein: divalent metal ion complexing agent; for TRABD protease activity: early study, metal ions
[2] = biological target: T1, TRABD2A protein (Homo sapiens, UniProt Q86V40); conditions: different view; metal ions; cited from earlier work
T1 sequence (Q86V40 22-480): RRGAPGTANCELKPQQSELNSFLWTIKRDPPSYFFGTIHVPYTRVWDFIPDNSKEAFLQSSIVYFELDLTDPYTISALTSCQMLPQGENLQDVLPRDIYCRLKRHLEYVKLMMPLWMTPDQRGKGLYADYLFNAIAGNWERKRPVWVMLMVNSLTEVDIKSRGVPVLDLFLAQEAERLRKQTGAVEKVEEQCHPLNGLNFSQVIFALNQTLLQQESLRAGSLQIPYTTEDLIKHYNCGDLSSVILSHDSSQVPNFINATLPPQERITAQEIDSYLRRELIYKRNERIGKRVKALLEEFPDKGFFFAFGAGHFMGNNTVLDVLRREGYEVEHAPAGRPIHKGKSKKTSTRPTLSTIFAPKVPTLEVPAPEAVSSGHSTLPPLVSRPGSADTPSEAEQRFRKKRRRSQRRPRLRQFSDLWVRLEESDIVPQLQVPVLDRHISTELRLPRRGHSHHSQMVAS

[3] = system: CD8^+ T cells and target cells; experiment: CCK8 and flow cytometry detection of toxic effect of metal cations; conditions: concentration of 20 μM
Source text: FIG. 4A show the effect on the target cell killing ability of CD8^+ T cells after metal cofactor intervention of TRABD2A; • A: detection of the killing activity of the CD8^+ T cells on target cells CEM.T2 when metal cations Co^2+, Ni^2+ and Mn^2+ at different concentrations act on CD8^+ T cells; • B: detection of the killing activity of the CD8^+ T cells on target cells MGC when metal cations Co^2+, Ni^2+ and Mn^2+ at different concentrations act on CD8^+ T cells; • C: CCK8 and flow cytometry detection of the toxic effect of metal cations Co^2+, Ni^2+ and Mn^2+ at different concentrations on target cells.

[4] = biological target: T2, TRABD2A metalloprotease on CD8^+ T cells (Homo sapiens, UniProt Q86V40); experiment: Killing activity of CD8+ T cells on target cells after metal cofactor intervention of TRABD2A; assay type: cell-based; conditions: metal cations at different concentrations acting on CD8+ T cells; target cells CEM.T2 and MGC; FIG. 4A
T2 construct: action of metal ions Mn^2+, Co^2+ and Ni^2+ on TRABD2A metalloprotease on CD8^+ T cells; endogenous in cells
T2 sequence (Q86V40 22-480): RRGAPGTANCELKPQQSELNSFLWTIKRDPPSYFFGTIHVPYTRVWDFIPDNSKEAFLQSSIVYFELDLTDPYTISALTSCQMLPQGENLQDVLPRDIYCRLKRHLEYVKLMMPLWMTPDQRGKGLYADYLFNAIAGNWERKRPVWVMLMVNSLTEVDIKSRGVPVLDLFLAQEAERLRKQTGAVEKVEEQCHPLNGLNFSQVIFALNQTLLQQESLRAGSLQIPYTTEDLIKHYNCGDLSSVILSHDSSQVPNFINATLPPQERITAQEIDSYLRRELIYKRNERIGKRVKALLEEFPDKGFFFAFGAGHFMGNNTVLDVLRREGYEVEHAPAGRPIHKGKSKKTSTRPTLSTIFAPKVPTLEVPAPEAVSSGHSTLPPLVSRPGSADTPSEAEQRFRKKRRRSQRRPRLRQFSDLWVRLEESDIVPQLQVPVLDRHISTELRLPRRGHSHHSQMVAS
Source text: Since TRABD2A is a metalloprotease and its activity is affected by metal ions, and the metal ion Mn^2+ having an accelerating effect on TRABD2A metalloprotease activity and metal ions Co^2+ and Ni^2+ having an inhibiting effect were examined. The effect of the TRABD2A protein on CD8^+ T cells was observed by the action of metal ions Mn^2+, Co^2+ and Ni^2+ on TRABD2A metalloprotease on CD8^+ T cells.

Compound | function of TRABD protein [1] | activity of the TRABD2A protein [2] | TRABD protease activity [1] | also measured
c1cnc2c(c1)ccc1cccnc12 [1,10-phenanthroline] | inhibited |  |  | 
[Ca+2] [Ca^2+] |  | independent |  | 
[Co+2] [Co^2+] |  | inhibited | increase | toxic effect on CD8^+ T cells and target cells [3]: little toxic effect; tumor killing ability of CD8^+ T cells [4]: enhanced
[Cu+2] [Cu^2+] |  |  | opposite effect | 
O=C(O)CN(CCN(CC(=O)O)CC(=O)O)CC(=O)O [EDTA] | inhibited |  |  | 
[Fe+3] [Fe^3+] |  | independent |  | 
